Literature values as cited in patent US20250230478A1, “COMBINATION OF NUCLEIC ACID SEQUENCES ENCODING PROTEINS DERIVED FROM HELICHRYSUM UMBRACULIGERUM, AND ANY […], TISSUE, AND ORGANISM COMPRISING SAME” (YEDA RESEARCH AND DEVELOPMENT CO. LTD., priority 2022, published 2025).

Columns and labels:
[1] = target: CB1 receptor (Homo sapiens, UniProt P21554)
[2] = target: T1, 5-HT1A receptor (Homo sapiens, UniProt P08908)
T1 sequence (P08908 1-422): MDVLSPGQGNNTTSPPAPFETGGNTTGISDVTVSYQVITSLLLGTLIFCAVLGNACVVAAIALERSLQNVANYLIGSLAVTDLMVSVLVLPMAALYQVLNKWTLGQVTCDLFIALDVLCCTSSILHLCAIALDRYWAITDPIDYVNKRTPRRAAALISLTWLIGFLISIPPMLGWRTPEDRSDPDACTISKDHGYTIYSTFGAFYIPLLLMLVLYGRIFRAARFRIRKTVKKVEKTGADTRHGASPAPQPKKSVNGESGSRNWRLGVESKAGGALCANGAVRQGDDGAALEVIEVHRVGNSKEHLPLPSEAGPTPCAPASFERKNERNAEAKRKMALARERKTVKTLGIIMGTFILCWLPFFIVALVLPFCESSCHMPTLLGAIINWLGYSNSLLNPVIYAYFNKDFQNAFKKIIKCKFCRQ

[3] = test system: α2-adrenergic receptor

Sequence of CB1 receptor (P21554 whole entry): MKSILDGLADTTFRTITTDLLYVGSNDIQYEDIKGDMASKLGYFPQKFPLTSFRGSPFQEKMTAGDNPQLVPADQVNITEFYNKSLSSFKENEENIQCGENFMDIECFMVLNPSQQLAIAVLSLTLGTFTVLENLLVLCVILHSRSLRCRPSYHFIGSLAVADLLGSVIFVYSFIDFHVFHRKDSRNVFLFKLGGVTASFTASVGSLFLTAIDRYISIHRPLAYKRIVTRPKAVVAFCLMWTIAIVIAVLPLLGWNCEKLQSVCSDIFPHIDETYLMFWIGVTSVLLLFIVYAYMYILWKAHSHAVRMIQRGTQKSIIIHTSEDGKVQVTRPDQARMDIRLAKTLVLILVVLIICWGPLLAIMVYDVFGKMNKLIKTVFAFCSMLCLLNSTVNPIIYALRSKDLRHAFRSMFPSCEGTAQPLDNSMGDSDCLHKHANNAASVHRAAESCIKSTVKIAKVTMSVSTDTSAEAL

CCCCCc1cc(O)c(C/C=C(\C)CCC=C(C)C)c(O)c1 [CBG, cannabigerol]
affinity as CB1 receptor antagonist [1]: low affinity | affinity as 5-HT1A receptor antagonist [2]: moderate affinity | affinity as α2-adrenergic receptor agonist [3]: high affinity
